Test results taken from patent US7495027B2, “3-aryl-4-hydroxyfuranone compounds and the human and animal health use thereof” (Wyeth, priority 2003, dated 2009).

Tested on: larvae of blowfly, Lucilia sericata
Assay: whole plant or invertebrate
Settings: dose rate of 20 ppm, Lucilia sericata larvae on treated filter paper with bovine serum; for % Mortality 24 h: assessed at 24 h; for % Mortality 48 h: assessed at 48 h
Method: Comparative Evaluation of the Efficacy of a 3-Aryl-4-hydroxyfuranone Compound Against Blowfly Larvae
In this evaluation, filter paper discs are treated with an acetone solution of test compound and allowed to dry. Bovine serum and newly emerged larvae of blowfly, Lucilia sericata, are added to the treated filter paper. Mortality is assessed at 24 h and 48 h. When more than one evaluation is performed, the data are averaged.

Row | SMILES | % Mortality 24 h | % Mortality 48 h
1 | N#Cc1ccc(-c2ccc(C=C3OC(=O)C(c4cccc(C(F)(F)F)c4)=C3O)cc2)cc1 (mixture of isomers) | 0% | 0%
2 | O=C1OC(=Cc2ccc(-c3ccc(Cl)cc3)cc2)C(O)=C1c1cccc(C(F)(F)F)c1 (mixture of isomers) | 0% | 0%
3 | N#Cc1cccc(C2=C(O)C(=Cc3ccc(-c4ccc(Cl)cc4)cc3)OC2=O)c1 (mixture of isomers) | 0% | 0%
4 | N#Cc1ccc(-c2ccc(C=C3OC(=O)C(c4cccc(Cl)c4)=C3O)cc2)cc1 (mixture of isomers) | 0% | 0%
5 | O=C1OC(=Cc2ccc(-c3ccc(Cl)cc3)cc2)C(O)=C1c1cccc(Cl)c1 (mixture of isomers) | 0% | 0%
6 | N#Cc1ccc(C2=C(O)C(=Cc3ccc(-c4ccc(C(F)(F)F)cc4)cc3)OC2=O)cc1 (mixture of isomers) | 0% | 25%
7 | O=C1OC(=Cc2ccc(-c3ccc(C(F)(F)F)cc3)cc2)C(O)=C1c1ccc(Cl)cc1 (mixture of isomers) | 0% | 0%
8 | N#Cc1ccc(-c2ccc(C=C3OC(=O)C(c4ccc(F)cc4)=C3O)cc2)cc1 (mixture of isomers) | 0% | 0%
9 | O=C1OC(=Cc2ccc(-c3ccc(Cl)cc3)cc2)C(O)=C1c1ccc(F)cc1 (mixture of isomers) | 0% | 0%
10 | O=C1OC(=Cc2ccc(C(F)(F)F)cc2)C(O)=C1c1ccc(-c2ccc(Cl)cc2)cc1 (mixture of isomers) | 0% | 0%
11 | N#Cc1ccc(C=C2OC(=O)C(c3ccc(-c4ccc(Cl)cc4)cc3)=C2O)cc1 (mixture of isomers) | 0% | 0%
12 | O=C1OC(=Cc2ccc(Cl)cc2)C(O)=C1c1ccc(-c2ccc(Cl)cc2)cc1 (mixture of isomers) | 0% | 0%
13 | COC1=C(c2ccc(Cl)cc2)C(=O)OC1=Cc1ccc(C#N)cc1 (mixture of isomers) [R=CH3, R1=4-Cl—C6H4**, R2=4-CN—C6H4] | 0% | 0%
14 | O=C1OC(=Cc2ccc(C(F)(F)F)cc2)C(O)=C1c1cccc(C(F)(F)F)c1 (mixture of isomers) [R=H, R1=3-CF3—C6H4**, R2=4-CF3—C6H4] | 100% | 100%
15 | N#Cc1ccc(C=C2OC(=O)C(c3cccc(C(F)(F)F)c3)=C2O)cc1 (mixture of isomers) [R=H, R1=3-CF3—C6H4**, R2=4-CN—C6H4] | 20% | 20%
16 | O=C1OC(=Cc2ccc(F)cc2)C(O)=C1c1cccc(C(F)(F)F)c1 (mixture of isomers) [R=H, R1=3-CF3—C6H4**, R2=4-F—C6H4] | 100% | 100%
17 | N#Cc1cccc(C2=C(O)C(=Cc3ccc(C(F)(F)F)cc3)OC2=O)c1 (mixture of isomers) [R=H, R1=3-CN—C6H4**, R2=4-CF3—C6H4] | 0% | 0%
18 | N#Cc1ccc(C=C2OC(=O)C(c3cccc(C#N)c3)=C2O)cc1 (mixture of isomers) [R=H, R1=3-CN—C6H4**, R2=4-CN—C6H4] | 0% | 0%
19 | N#Cc1cccc(C2=C(O)C(=Cc3ccc(Cl)cc3)OC2=O)c1 (mixture of isomers) [R=H, R1=3-CN—C6H4**, R2=4-Cl—C6H4] | 0% | 0%
20 | N#Cc1cccc(C2=C(O)C(=Cc3ccc(F)cc3)OC2=O)c1 (mixture of isomers) [R=H, R1=3-CN—C6H4**, R2=4-F—C6H4] | 0% | 0%
21 | O=C1OC(=Cc2ccc(C(F)(F)F)cc2)C(O)=C1c1cccc(Cl)c1 (mixture of isomers) [R=H, R1=3-Cl—C6H4**, R2=4-CF3—C6H4] | 60% | 75%
22 | N#Cc1ccc(C=C2OC(=O)C(c3cccc(Cl)c3)=C2O)cc1 (mixture of isomers) [R=H, R1=3-Cl—C6H4**, R2=4-CN—C6H4] | 0% | 0%
23 | O=C1OC(=Cc2ccc(Cl)cc2)C(O)=C1c1cccc(Cl)c1 (mixture of isomers) [R=H, R1=3-Cl—C6H4**, R2=4-Cl—C6H4] | 0% | 0%
24 | O=C1OC(=Cc2ccc(F)cc2)C(O)=C1c1cccc(Cl)c1 (mixture of isomers) [R=H, R1=3-Cl—C6H4**, R2=4-F—C6H4] | 0% | 0%
25 | O=C1OC(=Cc2ccc(C(F)(F)F)cc2)C(O)=C1c1ccc(C(F)(F)F)cc1 (mixture of isomers) [R=H, R1=4-CF3—C6H4**, R2=4-CF3—C6H4] | 100% | 100%

Row | SMILES | % Mortality 24 h | % Mortality 48 h
26 | N#Cc1ccc(C=C2OC(=O)C(c3ccc(C(F)(F)F)cc3)=C2O)cc1 (mixture of isomers) [R=H, R1=4-CF3—C6H4**, R2=4-CN—C6H4] | 100% | 100%
27 | O=C1OC(=Cc2ccc(Cl)cc2)C(O)=C1c1ccc(C(F)(F)F)cc1 (mixture of isomers) [R=H, R1=4-CF3—C6H4**, R2=4-Cl—C6H4] | 100% | 100%
28 | O=C1OC(=Cc2ccc(F)cc2)C(O)=C1c1ccc(C(F)(F)F)cc1 (mixture of isomers) [R=H, R1=4-CF3—C6H4**, R2=4-F—C6H4] | 100% | 100%
29 | N#Cc1ccc(C2=C(O)C(=Cc3cccc(C(F)(F)F)c3)OC2=O)cc1 (mixture of isomers) [R=H, R1=4-CN—C6H4**, R2=3-CF3—C6H4] | 0% | 90%
30 | N#Cc1ccc(C2=C(O)C(=Cc3ccc(C(F)(F)F)cc3)OC2=O)cc1 (mixture of isomers) [R=H, R1=4-CN—C6H4**, R2=4-CF3—C6H4] | 100% | 100%
31 | N#Cc1ccc(C=C2OC(=O)C(c3ccc(C#N)cc3)=C2O)cc1 (mixture of isomers) [R=H, R1=4-CN—C6H4**, R2=4-CN—C6H4] | 40% | 100%
32 | N#Cc1ccc(C2=C(O)C(=Cc3ccc(Cl)cc3)OC2=O)cc1 (mixture of isomers) [R=H, R1=4-CN—C6H4**, R2=4-Cl—C6H4] | 25% | 100%
33 | N#Cc1ccc(C2=C(O)C(=Cc3ccc(F)cc3)OC2=O)cc1 (mixture of isomers) [R=H, R1=4-CN—C6H4**, R2=4-F—C6H4] | 0% | 0%
34 | O=C1OC(=Cc2ccccc2C(F)(F)F)C(O)=C1c1ccc(Cl)cc1 (mixture of isomers) [R=H, R1=4-Cl—C6H4**, R2=2-CF3—C6H4] | 10% | 10%
35 | O=C1OC(=Cc2cccc(Cl)c2)C(O)=C1c1ccc(Cl)cc1 (mixture of isomers) [R=H, R1=4-Cl—C6H4**, R2=3-Cl—C6H4] | 0% | 0%
36 | O=C1OC(=Cc2ccc(C(F)(F)F)cc2)C(O)=C1c1ccc(Cl)cc1 (mixture of isomers) [R=H, R1=4-Cl—C6H4**, R2=4-CF3—C6H4] | 100% | 100%
37 | N#Cc1ccc(C=C2OC(=O)C(c3ccc(Cl)cc3)=C2O)cc1 (mixture of isomers) [R=H, R1=4-Cl—C6H4**, R2=4-CN—C6H4] | 0% | 90%
38 | O=C1OC(=Cc2ccc(F)cc2)C(O)=C1c1ccc(Cl)cc1 (mixture of isomers) [R=H, R1=4-Cl—C6H4**, R2=4-F—C6H4] | 0% | 0%
39 | O=C1OC(=Cc2ccc(C(F)(F)F)cc2)C(O)=C1c1ccc(F)cc1 (mixture of isomers) [R=H, R1=4-F—C6H4**, R2=4-CF3—C6H4] | 0% | 0%
40 | N#Cc1ccc(C=C2OC(=O)C(c3ccc(F)cc3)=C2O)cc1 (mixture of isomers) [R=H, R1=4-F—C6H4**, R2=4-CN—C6H4] | 0% | 0%
41 | O=C1OC(=Cc2ccc(Cl)cc2)C(O)=C1c1ccc(F)cc1 (mixture of isomers) [R=H, R1=4-F—C6H4**, R2=4-Cl—C6H4] | 0% | 0%
42 | O=C1OC(=Cc2ccc(F)cc2)C(O)=C1c1ccc(F)cc1 (mixture of isomers) [R=H, R1=4-F—C6H4**, R2=4-F—C6H4] | 0% | 0%
43 | COC1=C(c2cccc(C(F)(F)F)c2)C(=O)O/C1=C\c1ccccc1 [R=CH3, R1=3-CF3—C6H4, R2=C6H5] | 0% | 0%
44 | O=C1O/C(=C\c2ccc(-c3ccccc3)c(F)c2)C(O)=C1c1cccc(C(F)(F)F)c1 [R=H, R1=3-CF3—C6H4, R2=4-(3-F-biphenyl)] | 0% | 0%
45 | O=C1O/C(=C\c2cccc3ccccc23)C(O)=C1c1cccc(CO)c1 [R=H, R1=3-CH2OH—C6H4, R2=1-naphthyl] | 0% | 0%
46 | N#Cc1ccc(-c2ccc(/C=C3\OC(=O)C(c4ccc(Cl)cc4)=C3O)cc2)cc1 [R=H, R1=4-Cl—C6H4*, R2=4-(4′-CN-biphenyl)] | 0% | 100%
47 | N#Cc1ccc(-c2ccc(/C=C3\OC(=O)C(c4ccc(Cl)cc4)=C3O)cc2)cc1 [R=H, R1=4-Cl—C6H4, R2=4-(4′-CN-biphenyl)] | 0% | 0%
48 | COc1ccc(C=C2OC(=O)C(c3ccc(Cl)cc3)=C2O)cc1 [R=H, R1=4-Cl—C6H4, R2=4-OMe—C6H4] | 0% | 0%
49 | O=C1O/C(=C\c2cccc(C(F)(F)F)c2)C(O)=C1c1ccccc1 [R=H, R1=C6H5, R2=3-CF3—C6H4] | 0% | 0%
